Measured values taken from patent US11957687B2 (REGENERON PHARMACEUTICALS, INC., priority 2019, dated 2024).

Experiments:
[1] = target: HSD17B13 (Homo sapiens (Human), UniProt Q7Z5P4); assay: HSD17B13 enzymatic inhibition assay (150 nM or 50 nM HSD17B13); format: biochemical; conditions: 50 nM HSD17B13; read-out: Inhibition of 50 nM of HSD17B13 IC50
[2] = Microsome stability assay, human liver microsomes; format: in vitro ADME; conditions: 1 μM compound, 0.5 mg/mL microsomal protein; for microsomal CLint at 1 h, 1 µM / half-life at 1 h, 1 µM / microsomal CLint at 1 μM / half-life at 1 μM: human, human liver microsomes, pooled, NADPH, 37° C.; for microsomal CLint at 1 h, 1 µM / microsomal CLint at 1 μM: read-out: Microsome Stability Human liver microsomes Cl; for half-life at 1 h, 1 µM / half-life at 1 μM: read-out: Microsome Stability Human liver microsomes T½
Procedure, shortened: (§1)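 Compound at 1 μM incubated at 37° C with pooled human or mouse liver microsomes (0.5 mg/mL protein) plus NADPH regenerating system, sampled at 0–60 min; a 60-min no-NADPH incubation also included. Single replicate; LC/MS/MS disappearance from analyte/internal standard peak area ratios, without standard curve.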

[3] = target: HSD17B2 (Homo sapiens (Human), UniProt P37059); assay: HSD17B2 enzymatic blocking assay; format: biochemical; conditions: 1.8 μM Estradiol, 650 μM NAD; read-out: Inhibition of HSD17B2 IC50
Sequence of HSD17B2 (P37059 other isoform, or with tags, fused parts or gaps): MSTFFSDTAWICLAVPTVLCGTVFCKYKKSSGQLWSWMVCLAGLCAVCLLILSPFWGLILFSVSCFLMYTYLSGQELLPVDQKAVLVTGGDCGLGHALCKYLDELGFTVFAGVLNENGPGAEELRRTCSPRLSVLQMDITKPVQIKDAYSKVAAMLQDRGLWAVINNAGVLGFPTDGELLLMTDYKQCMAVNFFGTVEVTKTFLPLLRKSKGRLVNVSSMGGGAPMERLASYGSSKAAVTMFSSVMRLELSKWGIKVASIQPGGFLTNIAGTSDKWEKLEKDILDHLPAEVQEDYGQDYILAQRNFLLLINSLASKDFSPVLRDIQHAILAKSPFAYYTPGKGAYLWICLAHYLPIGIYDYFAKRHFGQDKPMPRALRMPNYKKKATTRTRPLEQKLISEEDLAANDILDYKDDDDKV
Experimental: To screen compounds of the disclosure for their ability to block HSD17B2 function, an enzymatic blocking assay was performed. For the assay, HSD17B2 activity was measured by detecting NADH formation from oxidation of Estradiol using a NADH Glo luminescence assay (Promega, #Cat. No. G9062). Compounds of the disclosure were evaluated in a dose titration assay where the compounds were titrated at 10-point dose curve using an Echo-555 liquid handling dispenser. HSD17B2 (SEQ ID NO: 3, expressed in mammalian cells) was added at a final concentration of 2 ng/μL in a buffer containing 50 mM Tris-HCl, pH 7.5, Pluronic F-127 0.05%, Tween20 0.01%, BSA 0.01% into a low volume white 384-well assay plate. Compounds were incubated with the enzyme for 15 min at 20° C. The assay reaction was then initiated by addition of 1.8 μM Estradiol substrate (Sigma, catalog #E2758-250MG, CAS: 50-28-2) and 650 μM NAD co-factor, and the reaction mixture was incubated for 45 min at 20° C. DMSO at a concentration of 0.5% was used as a negative control and a ‘no substrate’ control was used a positive control in the assay. Detection reagent was then added as per manufacturer's instructions, and the plate was subsequently incubated in the dark for 1 hour at room temperature, NADH generated was detected in the luminescence mode on the Envision Perkin Elmer plate reader. The IC50 values were determined using Dotmatics analysis software.

[4] = Microsome stability assay, mouse liver microsomes; format: in vitro ADME; conditions: 1 μM compound, 0.5 mg/mL microsomal protein
Procedure, shortened: as §1

[5] = target: HSD17B1 (Homo sapiens (Human), UniProt P14061); assay: HSD17B1 enzymatic blocking assay; format: biochemical; conditions: 25 μM Estradiol, 500 μM NAD; read-out: Inhibition of HSD17B1 IC50
Sequence of HSD17B1 (P14061 other isoform, or with tags, fused parts or gaps): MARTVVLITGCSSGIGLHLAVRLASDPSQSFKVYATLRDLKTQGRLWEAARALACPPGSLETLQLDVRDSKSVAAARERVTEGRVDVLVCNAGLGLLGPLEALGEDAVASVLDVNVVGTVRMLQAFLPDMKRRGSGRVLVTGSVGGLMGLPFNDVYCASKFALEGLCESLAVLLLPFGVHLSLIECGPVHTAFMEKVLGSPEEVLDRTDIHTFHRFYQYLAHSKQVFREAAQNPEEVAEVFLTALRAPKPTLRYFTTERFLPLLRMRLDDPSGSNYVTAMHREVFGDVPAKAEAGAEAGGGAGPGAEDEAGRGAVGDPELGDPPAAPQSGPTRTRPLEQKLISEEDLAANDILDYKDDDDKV
Experimental: To screen compounds of the disclosure for their ability to block HSD17B1 function, an enzymatic blocking assay was performed. For the assay, HSD17B1 activity was measured by detecting NADH formation from oxidation of Estradiol using a NADH Glo luminescence assay (Promega, #Cat. No. G9062). […] Compounds were incubated with the enzyme for 30 minutes at room temperature. […] DMSO at a concentration of 0.5% was used as a negative control and a ‘no substrate’ control was used a positive control in the assay. Detection reagent was then added as per manufacturer's instructions, and the plate was subsequently incubated in the dark for 1 hour at room temperature, NADH generated was detected in the luminescence mode on the Envision Perkin Elmer plate reader. The IC50 values were determined using Dotmatics analysis software.

Sequence of HSD17B13 (Q7Z5P4 other isoform, or with tags, fused parts or gaps): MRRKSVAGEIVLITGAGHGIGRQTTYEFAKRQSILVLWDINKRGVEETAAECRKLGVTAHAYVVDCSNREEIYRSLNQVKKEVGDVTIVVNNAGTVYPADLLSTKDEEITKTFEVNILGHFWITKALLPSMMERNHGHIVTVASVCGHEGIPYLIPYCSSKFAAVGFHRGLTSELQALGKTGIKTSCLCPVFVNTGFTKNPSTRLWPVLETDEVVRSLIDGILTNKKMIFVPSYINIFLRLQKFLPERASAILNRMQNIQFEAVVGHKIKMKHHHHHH

IC50 [1] | Microsome Stability Human liver microsomes % Remaining @60 min [2] | microsomal CLint at 1 h, 1 µM [2] | half-life at 1 h, 1 µM [2] | IC50 [3] | microsomal CLint at 1 μM [2] | half-life at 1 μM [2] | Microsome Stability Mouse liver microsomes % Remaining @60 min ([4]; 60 min) | microsomal CLint at 1 h, 1 µM ([4]; mouse, mouse liver microsomes, pooled, NADPH, 37° C., read-out: Microsome Stability Mouse liver microsomes Cl) | half-life at 1 h, 1 µM ([4]; mouse, mouse liver microsomes, pooled, NADPH, 37° C., read-out: Microsome Stability Mouse liver microsomes T½) | IC50 [5] | Structure (SMILES)
0.53 µM | 1.00% | 176 µL/min/mg | 7.87 min | 14.5 µM | – | – | – | – | – | – | O=C(NC1c2ccccc2Oc2ccccc21)c1ccc(C(F)(F)F)[nH]c1=O [Compound 1A, 2-oxo-6-(trifluoromethyl)-N-(9H-xanthen-9-yl)-1,2-dihydropyridine-3-carboxamide]
1.3 µM | – | – | – | 13.2 µM | – | – | – | – | – | – | C=Cc1ccc(C(NC(=O)c2ccc(C(F)(F)F)[nH]c2=O)c2ccccc2)cc1 (centres unmarked) [Compound 3A, 2-oxo-N-(phenyl(4-vinylphenyl)methyl)-6-(trifluoromethyl)-1,2-dihydropyridine-3-carboxamide]
0.55 µM | 1.12% | 156 µL/min/mg | 8.86 min | 11.7 µM | – | – | – | – | – | – | CCc1ccc(C(NC(=O)c2ccc(C(F)(F)F)[nH]c2=O)c2ccccc2)cc1 (centres unmarked) [Compound 4A, N-((4-ethylphenyl)(phenyl)methyl)-2-oxo-6-(trifluoromethyl)-1,2-dihydropyridine-3-carboxamide]
0.39 µM | 84.70% | – | – | 15.6 µM | < 9.6 µL/min/mg | > 145 min | 56.90% | 18.6 µL/min/mg | 74.5 min | – | O=C(NC(c1ccccc1)c1ccc(CC(F)(F)F)cc1)c1ccc(C(F)(F)F)[nH]c1=O (centres unmarked) [Compound 12, 2-oxo-N-(phenyl(4-(2,2,2-trifluoroethyl)phenyl)methyl)-6-(trifluoromethyl)-1,2-dihydropyridine-3-carboxamide]
0.56 µM | – | – | – | 23.7 µM | – | – | – | – | – | > 30 µM | N#Cc1ccc(C(NC(=O)c2ccc(C(F)(F)F)[nH]c2=O)c2ccccc2)cc1 (centres unmarked) [Compound 12A, N-((4-cyanophenyl)(phenyl)methyl)-2-oxo-6-(trifluoromethyl)-1,2-dihydropyridine-3-carboxamide]
2.81 µM | 100.00% | – | – | 14.2 µM | < 9.6 µL/min/mg | > 145 min | – | – | – | – | O=C(NC(c1ccc(C(F)(F)F)cc1)c1ccc(C(F)(F)F)cc1)c1ccc(C(F)(F)F)[nH]c1=O [Compound 14, N-(bis(4-(trifluoromethyl)phenyl)methyl)-2-oxo-6-(trifluoromethyl)-1,2-dihydropyridine-3-carboxamide]
1.91 µM | 49.80% | 20.2 µL/min/mg | 68.6 min | 33.6 µM | – | – | – | – | – | – | O=C(NC(c1ccccc1)c1ccc(O)cc1)c1ccc(C(F)(F)F)[nH]c1=O (centres unmarked) [Compound 19, N-((4-hydroxyphenyl)(phenyl)methyl)-2-oxo-6-(trifluoromethyl)-1,2-dihydropyridine-3-carboxamide]
0.99 µM | 8.05% | 88.6 µL/min/mg | 15.6 min | 13.2 µM | – | – | – | – | – | – | O=C(NC(Cc1ccccc1)c1ccc(Cl)cc1)c1ccc(C(F)(F)F)[nH]c1=O (centres unmarked) [Compound 19A, N-(1-(4-chlorophenyl)-2-phenylethyl)-2-oxo-6-(trifluoromethyl)-1,2-dihydropyridine-3-carboxamide]
1.56 µM | – | – | – | 2.27 µM | – | – | – | – | – | – | COc1ccc(C(C)(NC(=O)c2ccc(C(F)(F)F)[nH]c2=O)c2ccc(OC)cc2)cc1 [Compound 20A, N-(1,1-bis(4-methoxyphenyl)ethyl)-2-oxo-6-(trifluoromethyl)-1,2-dihydropyridine-3-carboxamide]
0.89 µM | – | – | – | 12.8 µM | – | – | – | – | – | – | O=C(NC(c1ccc(OC(F)F)cc1)c1ccc(OC(F)F)cc1)c1ccc(C(F)(F)F)[nH]c1=O [Compound 22, N-(bis(4-(difluoromethoxy)phenyl)methyl)-2-oxo-6-(trifluoromethyl)-1,2-dihydropyridine-3-carboxamide]
0.6 µM | 2.00% | 131 µL/min/mg | 10.6 min | 20.6 µM | – | – | – | – | – | – | COc1ccc(C(NC(=O)c2ccc(C(F)(F)F)[nH]c2=O)c2ccc(OC)cc2)cc1 [Compound 24, N-(bis(4-methoxyphenyl)methyl)-2-oxo-6-(trifluoromethyl)-1,2-dihydropyridine-3-carboxamide]
1.2 µM | 16.00% | 62.4 µL/min/mg | 22.2 min | 22.7 µM | – | – | – | – | – | – | COc1ccc(C(NC(=O)c2ccc(C(F)(F)F)[nH]c2=O)c2ccccc2)cc1 (centres unmarked) [Compound 26, N-((4-methoxyphenyl)(phenyl)methyl)-2-oxo-6-(trifluoromethyl)-1,2-dihydropyridine-3-carboxamide]
1.3 µM | 94.00% | – | – | 12.6 µM | < 9.6 µL/min/mg | > 145 min | – | – | – | – | O=C(NC(c1ccccc1)c1ccc(C(F)(F)F)cc1)c1ccc(C(F)(F)F)[nH]c1=O (centres unmarked) [Compound 28, N-(phenyl(4-(trifluoromethyl)phenyl)methyl)-2-oxo-6-(trifluoromethyl)-1,2-dihydropyridine-3-carboxamide]
0.49 µM | 31.30% | 39.8 µL/min/mg | 34.8 min | 6.59 µM | – | – | – | – | – | – | Cc1ccc2c(c1)-c1cc(C)ccc1C2NC(=O)c1ccc(C(F)(F)F)[nH]c1=O [Compound 43, N-(3,6-dimethyl-9H-fluoren-9-yl)-2-oxo-6-(trifluoromethyl)-1,2-dihydropyridine-3-carboxamide]
0.53 µM | – | – | – | 12.8 µM | – | – | – | – | – | – | O=C(NC1c2ccc(F)cc2-c2cc(F)ccc21)c1ccc(C(F)(F)F)[nH]c1=O [Compound 44, N-(3,6-difluoro-9H-fluoren-9-yl)-2-oxo-6-(trifluoromethyl)-1,2-dihydropyridine-3-carboxamide]
1.07 µM | – | – | – | 38.1 µM | – | – | – | – | – | – | COc1ccc2c(c1)-c1cc(OC)ccc1C2NC(=O)c1ccc(C(F)(F)F)[nH]c1=O [Compound 46, N-(3,6-dimethoxy-9H-fluoren-9-yl)-2-oxo-6-(trifluoromethyl)-1,2-dihydropyridine-3-carboxamide]
3.68 µM | – | – | – | > 100 µM | – | – | – | – | – | – | O=C(NC1CCc2ccccc21)c1ccc(C(F)(F)F)[nH]c1=O (centres unmarked) [Compound 63, N-(2,3-dihydro-1H-inden-1-yl)-2-oxo-6-(trifluoromethyl)-1,2-dihydropyridine-3-carboxamide]
0.27 µM | – | – | – | 8.22 µM | – | – | – | – | – | 9.16 µM | O=C(NC1c2ccccc2Oc2ccc(C3CC3)cc21)c1ccc(C(F)(F)F)[nH]c1=O (centres unmarked) [Compound 161, N-(2-cyclopropyl-9H-xanthen-9-yl)-2-oxo-6-(trifluoromethyl)-1,2-dihydropyridine-3-carboxamide]
0.02 µM | – | – | – | 28.3 µM | – | – | – | – | – | 6.43 µM | CCc1cc(C(=O)NC2c3ccc(C)cc3Oc3cc(C)ccc32)c(=O)[nH]c1C(F)(F)F [Compound 176, N-(3,6-dimethyl-9H-xanthen-9-yl)-5-ethyl-2-oxo-6-(trifluoromethyl)-1,2-dihydropyridine-3-carboxamide]
0.04 µM | – | – | – | 14.6 µM | – | – | – | – | – | 4.21 µM | Cc1ccc2c(c1)Oc1cc(C)ccc1C2NC(=O)c1cc(-c2ccccc2)c(C(F)(F)F)[nH]c1=O [Compound 177, N-(3,6-dimethyl-9H-xanthen-9-yl)-2-oxo-5-phenyl-6-(trifluoromethyl)-1,2-dihydropyridine-3-carboxamide]
